Key:
Conditions in all cases: 0.0630 kg/ha
[1] = system: Sicklepod, Cassia obtusifolia; test: Postemergence herbicidal evaluation, CASOB; format: in vivo, L.
Method: (§1) In the tests, seedling plants are grown in jiffy flats for about two weeks. The test compounds are dispersed in 50/50 acetone/water mixtures containing 0.5% TWEEN®20, a polyoxyethylene sorbitan monolaurate surfactant of Atlas Chemical Industries, in sufficient quantities to provide the equivalent of about 0.0157 kg to 0.500 kg per hectare of active compound when applied to the plants through a spray nozzle operating at 40 psi for a predetermined time. After spraying, the plants are placed on greenhouse benches and are cared for in accordance with conventional greenhouse procedures. From four to five weeks after treatment, the seedling plants are examined and rated according to the rating system set forth below. Where more than one test is involved for a given compound, the data are averaged.
(§2) Results of herbicide evaluation are expressed on a rating scale (0-9). The scale is based upon a visual observation of plant stand, vigor, malformation, size, chlorosis and overall plant appearance as compared with a control.

[2] = system: Soybean, Williams, Glycine max; test: Postemergence herbicidal evaluation, GLXMAW; format: in vivo, (L.) Merr. cv Williams
Method: as §1, §2

[3] = system: Rice, Tebonnet, Oryza sativa; test: Postemergence herbicidal evaluation, ORYSAT; format: in vivo, (L.) Tebonnet
Method: as §1, §2

[4] = system: Galium, Galium aparine; test: Postemergence herbicidal evaluation, GALAP; format: in vivo
Method: as §1, §2

[5] = system: Ragweed, Common, Ambrosia artemisifolia; test: Postemergence herbicidal evaluation, AMBEL; format: in vivo, L.
Method: as §1, §2

[6] = system: Corn, Field, Zea mays; test: Postemergence herbicidal evaluation, ZEAMX; format: in vivo, L.
Method: as §1, §2

[7] = system: Lambsquarters, Common, Chenopodium album; test: Postemergence herbicidal evaluation, CHEAL; format: in vivo, L.
Method: as §1, §2

[8] = system: Foxtail, Green, Setaria viridis; test: Postemergence herbicidal evaluation, SETVI; format: in vivo, (L.) Beau
Method: as §1, §2

[9] = system: Morningglory, Ivyleaf, Ipomoea hederacea; test: Postemergence herbicidal evaluation, IPOHE; format: in vivo, (L.) Jacq.
Method: as §1, §2

[10] = system: Wheat, Winter, cv Riband, Triticum aestivum; test: Postemergence herbicidal evaluation, TRZAWR; format: in vivo
Method: as §1, §2

[11] = system: Velvetleaf, Abutilon theophrasti; test: Postemergence herbicidal evaluation, ABUTH; format: in vivo, Medic.
Method: as §1, §2

[12] = system: Barnyardgrass, Echinochloa crus-galli; test: Postemergence herbicidal evaluation, ECHCG; format: in vivo, (L.) Beau
Method: as §1, §2

Row | SMILES | herbicide rating (0-9) [1] | herbicide rating (0-9) [2] | herbicide rating (0-9) [3] | herbicide rating (0-9) [4] | herbicide rating (0-9) [5] | herbicide rating (0-9) [6] | herbicide rating (0-9) [7] | herbicide rating (0-9) [8] | herbicide rating (0-9) [9] | herbicide rating (0-9) [10] | herbicide rating (0-9) [11] | herbicide rating (0-9) [12]
1 | Cc1ccc(OCC(=O)OCCN(C)C)c(-c2nsc3ccc(-n4c(=O)cc(C(F)(F)F)n(C)c4=O)cc23)c1 [Compound 70, 2-(Dimethylamino)ethyl {{2-[5-[3,6-dihydro-3-methyl-2,6-dioxo-4-(trifluoromethyl)-1(2H)-pyrimidinyl]-1,2-benzisothiazol-3-yl}-p-tolyl}oxy}acetate] | 9.0 | 8.0 | 3.0 | 5.0 | 9.0 | 6.0 | 9.0 | 9.0 | 9.0 | 5.0 | 9.0 | 9.0
2 | Cc1ccc(OCC(=O)OCc2ccccn2)c(-c2nsc3ccc(-n4c(=O)cc(C(F)(F)F)n(C)c4=O)cc23)c1 [Compound 72, 2-Pyridylmethyl {{2-{5-[3,6-dihydro-3-methyl-2,6-dioxo-4-(trifluoromethyl)-1(2H)-pyrimidinyl]-1,2-benzisothiazol-3-yl}-p-tolyl}oxy}acetate] | 7.0 | 9.0 | 7.5 | 9.0 | 9.0 | 8.0 | 9.0 | 9.0 | 9.0 | 7.5 | 9.0 | 9.0
